# Experiments:
# [1] = test system: PC3 tumors; assay: Inversion recovery (IR) weighted sodium MRI of PC3 tumors after chemotherapy; assay type: in vivo, nude mice; details: for increase in maximum IR sodium image intensity: PC3 tumors, 24 hrs vs predrug, 25 msec inversion time, normalized to brighter phantom, taxotere 1.5 mg, VP-16 0.2-0.4 mg, femoral vein
# Procedure: (§1) (A) Chemotherapy and inversion recovery MR imaging—Following acquisition of control images, antineoplastics were administered. All IR images and SQ images were normalized to the brightest phantom within each slice (i.e., 40% Ficoll for IR and 30% Ficoll for SQ respectively). All tumors were analyzed by examining changes in intensity at the brightest—usually central area—of the tumor image. It was clearly identifiable both from manual examination with line profiles or from the pixel density histogram derived from a region of interest analysis. […] Results from PC3 tumors (solid lines, filled circles) and DU145 tumors (dashed lines, open circles) are plotted together. In two experiments with control saline injections (not shown in graphs), there were small decreases of 5.5% (NS) at 24 hours and 3.5% (NS) at 48 hours.
# In vivo detection of antineoplastic effects using weighted sodium MR images—Examination of the effect of chemotherapy on the IR sodium image in a series of PC3 and DU145 tumors was studied. Control and post-therapy images were acquired in sixteen mice, and tumors in two additional mice had images reacquired at both 24 and 48 hrs following control saline injection. […] Results are plotted as change in maximum image intensity for each drug separately (top panel, FIG. 4, taxotere; bottom panel, FIG. 4, VP-16 etoposide). Elevation is significant for each drug taken separately for the more numerous PC3 tumor experiments (taxotere, 32% increase at p<0.001, n=5; VP-16, 38% increase at p<0.0005, n=7); and is also significant for all PC3 experiments measured at 48 hrs (28%, p<0.05, n=11).
# All imaging experiments were performed on a high field (4.23 Tesla) whole body MRI system. A small quadrature birdcage radiofrequency coil (50 mm ID, Morris Inc.) and a high strength gradient insert coil (30 mT/m, Bruker model G-33) were employed. Acquisition parameters were TR=100 msec, TE=5.6 msec, FOV=40 mm, slice thickness=2.5 mm, flip angle=90° , inversion time=25 msec, acquisition matrix was 64×64×8. The two phantoms on all animal images shown were identical (P1-30% Ficoll in 200 mM NaCl; P2-40% Ficoll in 200 mM NaCl). All animal images were normalized to the brighter phantom (e.g. P1 on the SQ, P2 on the IR). Animals were positioned in a specially designed animal holder, allowing for reproducible tumor placement.
# Two adjacent slices from a 3 dimensional gradient echo image set of a PC3 tumor are shown before (FIGS. 5, A&B) and 48 hrs after (FIGS. 5, C&D) injection of 1.5 mg taxotere to the nude mouse. […] The second example illustrates the contribution of this technique at its limit of resolution.
# Inversion recovery images (25 msec inversion time) were acquired for 16 nude mouse tumors following chemotherapy. […]
# [2] = test system: PC3 cells; assay: Annexin V/FITC labeling of live (propidium iodide negative) cells, flow cytometry; assay type: cell-based, human
# Procedure: Enhanced FITC fluorescence (annexin positive response; panel B) indicated reorientation of phosphatidylserine within the cell membrane. PI was added to detect dead cells, which was both PI and annexin positive, the latter response due to internal binding of an antibody to phosphatidylserine sites accessed through membrane rupture. Control cells were mostly PI and FITC negative. The percentage of live PC3 cells that were annexin positive (vertical axis) is plotted versus time (horizontal axis) for taxotere (10 nM; filled circles) and VP-16 (10 ug/ml; filled triangles). A one dimensional annexin histogram (FITC intensity) for live cells is shown for control (bottom insert) and after 24 hrs VP-16 (top insert). Flow cytometry was performed on the Becton/Dickenson FACStar II (APO-BrdU) or exCaliber flow system (Annexing) at the Columbia University Cancer Center and analyzed using CellQuest Software.
# a) Early events—reorientation of phosphatidylserine: Live cells exposed to an Annexin V/FITC conjugated antibody. Enhanced fluorescence indicates reorientation of phosphatidylserine within the cell membrane (61, 93). Propidium iodide (PI) concurrently indicates cell viability. Since trypsin cleaves the annexin binding site, for dissociating cells from explanted tumor, trypsin containing collagenase preparations were not used. Cells are dissociated by mincing the tumor with surgical scissors and passing tissue repeatedly through needles while increasing the gauge. Cells are removed from tissue culture plates using 1 mM EDTA in Ca/Mg free PBS.
# Flow cytometry was used to examine a second, presumably an earlier event in the apoptotic cascade, reorientation of phosphatidylserine within the cell membrane (FIG. 3.B.). Live cells were exposed to an annexin\V/FITC conjugated antibody. For annexin labeling, cells were cultured for 1 day, treated, then lifted off the culture plate using PBS plus EDTA and exposed to Annexin V/FITC conjugated antibody. Trypsin—which cleaves the antibody binding site—was avoided.
# [3] = test system: PC3 and DU145 tumors; assay: IR sodium MRI, PC3 and DU145 tumors taken as a whole; assay type: in vivo, nude mice; details: PC3 and DU145 tumors plotted together
# Procedure: as §1, with “In two experiments with control saline injections (not shown in graphs), there were small decreases of 5.5% (NS) at 24 hours and 3.5% (NS) at 48 hours.” left out
# In vivo detection of antineoplastic effects using weighted sodium MR images—Examination of the effect of chemotherapy on the IR sodium image in a series of PC3 and DU145 tumors was studied. […] Elevation is significant for each drug taken separately for the more numerous PC3 tumor experiments (taxotere, 32% increase at p<0.001, n=5; VP-16, 38% increase at p<0.0005, n=7); and is also significant for all PC3 experiments measured at 48 hrs (28%, p<0.05, n=11). […]
# The effect of chemotherapy on the IR sodium image intensity in PC3 and DU145 tumors was consistent with the culture results. […] These values were calculated from human doses using standard equations which convert weight to surface area for small mammals. […]
# [4] = 24 hrs, VP-16 10 μg/ml, taxotere 10 nM
SMILES,"spatial change of tumor on inversion recovery image ([1]; PC3 tumor, 48 hrs after injection of 1.5 mg)",increase in maximum IR sodium image intensity [1] [%],time by which markers for apoptosis were detectable ([2]; 10 nMol/L in culture) [h],time by which markers for apoptosis were pronounced ([2]; 10 nMol/L in culture) [h],"annexin V response [2, 4]","standard dose relative to Kd of annexin V dose response curve ([2]; Kd measured at 48 hrs, standard dose 10 nM)",annexin V response ([2]; higher drug concentrations (10.0 μM) or later times (e.g. 48 hrs)),IR image intensity at 24 hrs versus control (graphs) [3],"detectability of tumor on IR image ([1]; elongated PC3 tumor, 24 hr after injection of 0.3 mg)","fraction of live cells (propidium iodide negative) in the annexin V positive peak ([2]; 10 μg/ml, maximum response (24 hrs))","annexin V response ([2]; 17 hrs, 10 μg/ml)","standard dose relative to Kd of annexin V dose response curve ([2]; Kd measured at 24 hrs, standard dose 10 μg/ml)"
CC(=O)O[C@@]12CO[C@@H]1C[C@H](O)[C@@]1(C)C(=O)[C@H](O)C3=C(C)[C@@H](OC(=O)[C@H](O)[C@@H](NC(=O)OC(C)(C)C)c4ccccc4)C[C@@](O)([C@@H](OC(=O)c4ccccc4)[C@H]21)C3(C)C [taxotere],clear spatial broadening of the tumor,32,≤ 24,≤ 48,much less pronounced,approximately 3 ×Kd,substantially greater,increased image intensity,–,–,–,–
"COc1cc([C@@H]2c3cc4c(cc3[C@@H](O[C@@H]3O[C@@H]5CO[C@@H](C)O[C@H]5[C@H](O)[C@H]3O)[C@H]3COC(=O)[C@H]23)OCO4)cc(OC)c1O [VP-16, etoposide]",–,38,–,–,pronounced,–,–,increased image intensity,readily apparent following chemotherapy,Up to ⅔,apparent,approximately 3 ×Kd
